One data set deals with rats. Conditions: subcutaneously, rats; cited from earlier work.
Another data set deals with mice. To be noted: subcutaneously; cited from earlier work.
Another data set concerns bovine serum albumin. The experiment in a line: Formation of fluorescent advanced glycosylation end products in albumin incubated with glucose. The format is biochemical. Conditions: 200 mM agent, 6 mg/mL BSA, 200 mM glucose, 37° C., two-week incubation, vs control. On the procedure:
To measure the ability of certain of the agents of the present invention to inhibit the production of advanced glycosylated end products in vitro, albumin and glucose were incubated together for two weeks in the presence of several test agents. Samples were taken at regular intervals for analysis. Advanced glycosylation end products were measured as appearance of fluorescent compounds, and early glycosylation products were measured by incorporation of radiolabeled glucose into albumin. Reaction conditions were as follows. […]
After the incubation periods, samples were treated as follows. After dialysis to remove all unbound glucose, the amount of protein present was measured with a standard dye-binding assay. The amount of glucose which became bound to the albumin, a measure of early glycosylation products, was determined by precipitating albumin with trichloroacetic acid and measuring the radioactivity of the bound glucose using scintillation counting.
The results of this experiment are expressed graphically in FIG. 1. For each sample, incorporation of radiolabeled glucose is indicated by the solid portion of the bar, and fluorescence is indicated in the open portion of the bar. All values are expressed as per milligram of albumin. […]

For another data set, the system named is gelatin (collagen). Kind of data set: Protein trapping: radioiodinated albumin bound to gelatin (collagen) agarose beads with glucose-6-phosphate. It is filed as biochemical. To be noted: agent 200 mN, 400 mN glucose-6-phosphate, two weeks, 37° C. From the text: To more precisely measure the effect of the agents on the inhibition of protein crosslinking, an assay system was devised to measure the extent of in vitro binding of a soluble protein to an insoluble protein. This assay system mimics the events which occur in tissues in which serum proteins become bound to proteins in extravascular matrix and which lead to accumulation of protein and narrowing of vessel lumina in several other tissues. These events in vivo give rise to kidney disease and atherosclerotic disease, and lead to the pathologies associated with diabetes and aging.
To measure protein trapping (i.e., binding or accumulation), gelatin (collagen) was coupled to activated agarose beads (Affigel 10, Bio-Red Laboratories) by routine methods. After coupling, all remaining active sites on the beads were quenched by reaction with glycine ethyl ester.
The beads were incubated for two weeks with bovine serum albumin and 400 mN glucose-6-phosphate, a more reactive form of glucose which forms early glycosylation products with proteins more rapidly than does glucose. […] The bovine serum albumin was radioiodinated so that the amount which became bound to the beads could be measured. […]
After a two-week incubation of the reaction mixtures at 37° C., the beads were washed extensively with chaotropic agents and the covalently bound radioactivity was determined. […]

The test system of data set [1] is demineralized bone matrix particles. The experiment in a line: Bone differentiation of AGE-modified demineralized bone matrix implanted in rats. It is filed as in vivo, rat. Conditions: matrix incubated with glycolaldehyde. On the procedure: In order to assess the possible role of hyperglycemia-induced matrix modifications in this process, demineralized bone matrix particles from 35 week old normal Long-Evans rats were prepared. Matrix is incubated in phosphate buffered saline alone (PBS), PBS containing various sugar precursors of AGE (PBS−G), and PBS with sugars plus the AGE-inhibitor aminoguanidine (PBS−G+AG). After incubation, the matrix is washed and implanted subcutaneously in normal rats. Twelve days after implantation, ^45CaCl2 is injected to determine implant mineralization, and alkaline phosphatase activity is measured to assess osteoblast function. Duplicate specimens are fixed, embedded and stained for histologic evaluation.

These results are taken from US20020115724A1, “Methods and agents for inhibiting protein aging” (priority 1985, published 2002).

For orientation: LD50 means the dose at which mortality reaches 50%.

As to `N=C(N)NN` [aminoguanidine base, aminoguanidine], the LD50 is given as 1258 mg/kg in the data set on rats and 963 mg/kg in the data set with mice.
`NCCCC[C@H](N)C(=O)O` [Lysine, lysine]: the “formation of fluorescent compounds (advanced glycosylation end products)” value in the data set on bovine serum albumin is listed as “appeared to cause an increase in fluorescent compound formation”. In addition, in the data set with gelatin (collagen), the “amount of protein trapping (radiolabeled albumin bound to collagen beads)” value was “reduced the amount of protein trapping to an extent similar to that of aminoguanidine”.
Take `O=CCO` [glycolaldehyde, reference compound]: the “matrix AGE content (by specific fluorescence), increase” value in data set [1] is on record as “over twofold”. Moreover, the “inhibition of bone differentiation (45CaCl2 uptake, alk phos, histology)” value in data set [1] (implanted subcutaneously, 12 days) is listed as “more than 90%”.
